From PubChem BioAssay (NCI) come the findings set out here.

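Method: 48-hour compound exposure of cells in 96-well plates, five concentrations, linear interpolation of endpoints. The concentration for 50% growth inhibition is given as GI50. TGI denotes the concentration required for complete inhibition of growth.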 A value given as a limit tells only on which side of the number the result lay.

Common to all, as to assay: DTP human tumour cell line panel, 48 h
Assay [1] concerns 786-0 renal.
The test system of assay [2] is SF-268 CNS.
For assay [3], the system named is SR leukemia.
The test system of assay [4] is ACHN renal.
Assay [5] has as its system LOX IMVI melanoma.
The subject of assay [6] is T-47D breast.
Assay [7] has as its system HS 578T breast.
For assay [8], the system named is MDA-MB-231 breast.
The test system of assay [9] is BT-549 breast.
Assay [10] has as its system NCI/ADR-RES ovarian.

Usually TGI stands for the concentration at which net growth stops. High values mean less potent growth arrest, low ones more potent growth arrest. `O=C(C(=O)c1cc2ccccc2[nH]1)c1cc2ccccc2[nH]1`: the TGI is > 347 µM in assay [1]; > 347 µM in assay [2]; > 110 µM in assay [3]; > 347 µM in assay [4]; > 347 µM in [5].

As usually defined, the GI50 is the concentration that inhibits growth by half. Take `O=C(NCCCCN1CCOCC1)c1cc2ccccc2o1`: the GI50 in assay [1], in assay [2], in assay [6], in [4], in [7] and in assay [8] was > 100 µM each time. The GI50 in [9], in assay [10] and in assay [5] was > 100 µM each time. Moreover, the TGI in [1], in assay [2], in assay [6], in assay [4], in assay [7] and in [8] was > 100 µM throughout. For the same compound, the concentration for total growth inhibition (TGI) in assay [9], in assay [10] and in assay [5] was > 100 µM each time.

On to `CCC[C@H]1O[C@@H]2CC(=O)O[C@@H]2C2=C1C(=O)C=CC2=O`, for which the TGI in [1] was 30.3 µM; in assay [2] it was 18.7 µM; in assay [3], 49.8 µM; in [4], 25.7 µM; in assay [5], 39.8 µM.

With `C=C(C)[C@H]1CC[C@@]2(C)C(C1)[C@H](C)CC[C@@H]2O` (stereo partly specified), the TGI in [1], in assay [2], in [3], in assay [4] and in [5] was > 100 µM in each case.

Regarding `Cc1nc2sccn2c1C(=O)NN`, the TGI in assay [1], in [2], in assay [3], in assay [4] and in [5] was > 100 µM throughout.

Consider `NS(=O)(=O)OC[C@H]1C[C@@H](Nc2ccnc3cc(-c4cccc(SC(F)(F)F)c4)nn23)[C@H](O)[C@@H]1O`, for which the GI50 in [1] is 0.0472 µM; in assay [2], 0.0265 µM; in assay [3], 0.0316 µM; in [4], 0.176 µM; in assay [7], 0.0351 µM; in [8], 0.0195 µM. Moreover, the GI50 in assay [9] is 0.0193 µM. For the same compound, the TGI in [1] is 0.19 µM; in [2], 0.0711 µM; in assay [3], 1.05 µM; in assay [4] it was 0.36 µM; in assay [7] it was 1.95 µM; in assay [8], 0.0867 µM. The TGI in [9] is 0.0484 µM.

As for `Cc1cnc2ccc(C)c([N+](=O)[O-])c2c1NCCCN(C)C`, the TGI in [1], in assay [2], in assay [3], in assay [4] and in assay [5] was > 100 µM in each case.

Regarding `Cc1nc([N+](=O)[O-])cn1-c1nc2ccccn2c1[N+](=O)[O-]`, the TGI in [1], in assay [2], in [6], in [3], in [4] and in assay [7] was > 100 µM each time. Besides, the TGI in assay [8], in assay [9] and in assay [10] was > 100 µM each time.

Regarding `CCOC(=O)c1cc(C(=O)c2ccc(OC)cc2)n2ccc(/C=C/c3cc[n+](CC(=O)c4ccc(OC)cc4)cc3)cc12`, the GI50 was 1.98 µM in assay [1]; 2.09 µM in assay [2]; 1.91 µM in assay [6]; 0.367 µM in [3]; 1.58 µM in [8]; > 100 µM in assay [10]. For the same compound, the GI50 in assay [5] was 1.51 µM. In addition, the TGI in [1] is 3.94 µM; in assay [2], 4.52 µM; in assay [6], 4.43 µM; in assay [3], 2.29 µM; in assay [8], 3.22 µM; in assay [10], > 100 µM. In addition, in assay [5], the TGI is 3.66 µM.

As to `COc1ccc(C(c2ccccc2)(c2ccc(OC)cc2)N2C(=O)NC3C(CCCCC(=O)NCCCCCCOP(OCCC#N)N(C(C)C)C(C)C)SCC32)cc1` (stereo unspecified), the TGI was 35.9 µM in assay [1]; 30.6 µM in assay [2]; 27.2 µM in assay [3]; 29.9 µM in assay [4]; 24 µM in assay [5].

`O=C(CSc1nc2c(n1Nc1ccccc1)-c1ccccc1SC2)Nc1nc(-c2ccc(Cl)cc2)cs1`: the GI50 in assay [1] is 12.7 µM; in assay [2], 10.8 µM; in assay [6], 26.6 µM; in assay [4], 35.4 µM; in assay [7], 6.35 µM; in assay [8], 33.3 µM. In addition, the GI50 in assay [9] was 33.5 µM; in assay [10], 25.5 µM; in assay [5], > 100 µM. Besides, the TGI in [1] is 34.8 µM; in assay [2], > 100 µM; in assay [6], > 100 µM; in assay [4] it was > 100 µM; in [7] it was 78.7 µM; in assay [8] it was > 100 µM. Also, the TGI in [9], in assay [10] and in [5] was > 100 µM throughout.

With `COc1ccc(C(=O)C(CN(C)C)CN(C)C)cc1`, the GI50 in assay [1] is 3.87 µM; in assay [2] it was 13.7 µM; in [6], 1.86 µM; in [4] it was 1.56 µM; in assay [7], 17.3 µM; in [8], 14.6 µM. The GI50 is 15.3 µM in assay [9], 2.6 µM in assay [10] and 2.08 µM in [5]. The TGI in [1] was found to be 16.1 µM; in assay [2], 42.3 µM; in assay [6] it was 5.28 µM; in assay [4], 2.93 µM; in assay [7], 56.3 µM; in [8], 36.6 µM. Besides, the TGI turned out to be 28.8 µM in assay [9], 6.42 µM in assay [10] and 5.04 µM in assay [5].
